Test results taken from patent US12583834B2, “Method of treating bacterial infections and pharmaceutical composition for treating bacterial infections” (Institut National de Recherche pour l'Agriculture, …, priority 2020, dated 2026).
Entries after “also recorded” stand apart in the source; their conditions may differ.

Columns and labels:
Mfd from E. coli = Mfd from E. coli (Escherichia coli, UniProt P30958); assay: Inhibition of Mfd ATPase activity in vitro (BIOMOL Green phosphate release); assay type: biochemical; details: for relative inhibition of E. coli Mfd ATPase activity with respect to the vehicle (DMSO): 100 μM compound, ATP 0.035 mM and 0.070 mM, FIG. 1
Procedure: Mfd enzyme activity was evaluated by measuring the quantity of inorganic phosphate (PO4i) released using BIOMOL® Green reagent microtiter-plate assay (Enzo Life Sciences). Mfd from E. coli (0.35 μM) was incubated with DMSO or with the tested compounds at a concentration of 100 μM in DMSO, for 10 min at 37° C. ATPase reaction was measured in Tris pH8 0.05M; NaCl 0.3M; DTT 0.002M; MgCl2 0.0025M; DMSO 2%; containing ATP (at different concentrations between 0.0022 and 0.279 mM) for 30 min at 37° C. 50 μL of each reaction medium was transferred into clear, flat-bottom 96-well plates and the reaction was terminated by the addition of 100 μl of BIOMOL® Green reagent. The absorbance at 620 nm was measured in a microplate reader (Tecan). The absorbance values were then transformed into nmols of PO4i released based on a PO4i standard curve prepared as recommended by the supplier.
The potency of each compound is calculated relative to the vehicle DMSO control. Each point is the mean of duplicate experiments of N=2+/−SEM (Standard error of the Mean).
Mfd ATPase activity at ATP concentrations ranging from 0 to 0.279 mM was measured in the same conditions as described above, without and with presence of various doses of compound (Ia): 0 μM, 3 μM, 10 μM, 30 μM, 65 μM and 100 μM. Curves were fit to the Michaelis-Menten equation with the GraphPad PRISM software. Results are the mean of duplicate experiment of N=3-10+/−SEM.

B. cereus (Bc 407) [1] = assay: Mouse systemic infection model, B. cereus bacterial load in organs; assay type: in vivo, C57BL/6JRj mice; details: mice, B. cereus 4×10^6 CFU i.p., 12 mg/kg i.p., 6 h after infection; lung, liver and spleen; FIG. 8
Procedure: The efficiency of the compound of the invention (Ia) against a bacterial pathogen was assessed in a mouse model of infection (systemic infection model). Eight weeks old female C57BL/6JRj (Janvier Labs) mice were infected with B. cereus (Bc 407) (4×10^6 CFU) by intraperitoneal injection (100 μL). 100 μl of compound of the invention (Ia) in DMSO at a dose of 12 mg/kg, or of the vehicle alone (DMSO), were further injected to the mice by intraperitoneal injection. 6 h after the infection mice were sacrificed by cervical dislocation. Mice organs were collected and homogenized in cold Phosphate Buffered Saline (PBS). Bacteria burdens in organs were determined by plating serially dilution of the homogenate on LB agar media. The results obtained are shown on FIG. 8 in a/ for the lung, in b/ for the liver and in c/ for the spleen. In these figures, the data are represented as mean+/−SEM from 3 different experiments with 6-8 mice per group. Each point represents one animal.

[2] = test system: Pseudomonas aeruginosa (CIP27853); assay: Survival of silkworm larvae infected with P. aeruginosa; assay type: in vivo; details: Bombyx mori larvae, P. aeruginosa 1×10^4 CFU, 0.3 to 5.5 μg/g injected with the bacteria, 24 h at 27° C.; effect at higher doses; FIG. 7
A. baumannii (CIP7034) = assay: Antimicrobial activity during nitric oxide stress, A. baumannii; assay type: cell-based, Acinetobacter baumannii; details: A. baumanii, 4 h at 37° C. under nitric oxide stress, 10 to 200 μM; FIG. 5
Procedure: (§1) The power of compound (Ia) to inhibit bacterial growth, specifically in the presence of in vitro-produced nitric oxide, is measured for different bacterial species: Bacillus cereus and two antibiotherapy challenging bacteria, regarding medical interest and therapeutic needs, namely Klebsiella pneumoniae and Acinetobacter baumannii.
(§2) Gram-positive B. cereus (Bc 407) and Gram-negative K. pneumoniae (CIP700603) and A. baumannii (CIP7034) strains were grown to exponential phase in Luria-Bertani (LB) medium. Bacteria solution were prepared in Roswell Park Memorial Institute (RPMI) medium and 150 μL were dispatched into 96-wells plate. To measure effect of compound (Ia), bacteria were exposed to 50 μL of NO at a concentration that induces a survival below 90% compared to the condition without NO, in absence (0 μM) or presence (at a dose ranging from 10 to 200 μM) of compound (Ia).
(§3) Bacteria survival rate was quantified after 4 h at 37° C. by normalizing bacterial load in (Ia)-treated samples against that in DMSO-treated samples (0 μM of (Ia)).
(§4) The results obtained are shown in FIG. 3 for B. cereus, in FIG. 4 for K. pneumoniae and in FIG. 5 for A. baumanii. In these bar graphs the data represent the mean of duplicate experiment of N=3/12+/−SEM. Two-tailed t-student tests are employed to investigate statistical differences, using GraphPad Prism.

[3] = test system: K. pneumoniae (CIP700603); assay: Antimicrobial activity during nitric oxide stress, K. pneumoniae; assay type: cell-based, Klebsiella pneumoniae; details: 4 h at 37° C. under nitric oxide stress, 10 to 200 μM, FIG. 4
Procedure: as §1, §2, §3, §4

Bombyx mori larvae = assay: Toxicity towards silkworm larvae; assay type: in vivo; details: 0.3 to 5.5 μg/g injected
B. cereus (Bc 407) [4] = assay: Antimicrobial activity during nitric oxide stress, B. cereus; assay type: cell-based, Bacillus cereus; details: 4 h at 37° C. under nitric oxide stress, 10 to 200 μM, FIG. 3
Procedure: as §1, §2, §3, §4

Bacillus cereus (Bc 407) = assay: Survival of silkworm larvae infected with B. cereus; assay type: in vivo; details: Bombyx mori larvae, B. cereus 1×10^2 CFU, 0.3 to 5.5 μg/g injected with the bacteria, 24 h at 27° C.; FIG. 6

Sequence of Mfd from E. coli (P30958 whole entry): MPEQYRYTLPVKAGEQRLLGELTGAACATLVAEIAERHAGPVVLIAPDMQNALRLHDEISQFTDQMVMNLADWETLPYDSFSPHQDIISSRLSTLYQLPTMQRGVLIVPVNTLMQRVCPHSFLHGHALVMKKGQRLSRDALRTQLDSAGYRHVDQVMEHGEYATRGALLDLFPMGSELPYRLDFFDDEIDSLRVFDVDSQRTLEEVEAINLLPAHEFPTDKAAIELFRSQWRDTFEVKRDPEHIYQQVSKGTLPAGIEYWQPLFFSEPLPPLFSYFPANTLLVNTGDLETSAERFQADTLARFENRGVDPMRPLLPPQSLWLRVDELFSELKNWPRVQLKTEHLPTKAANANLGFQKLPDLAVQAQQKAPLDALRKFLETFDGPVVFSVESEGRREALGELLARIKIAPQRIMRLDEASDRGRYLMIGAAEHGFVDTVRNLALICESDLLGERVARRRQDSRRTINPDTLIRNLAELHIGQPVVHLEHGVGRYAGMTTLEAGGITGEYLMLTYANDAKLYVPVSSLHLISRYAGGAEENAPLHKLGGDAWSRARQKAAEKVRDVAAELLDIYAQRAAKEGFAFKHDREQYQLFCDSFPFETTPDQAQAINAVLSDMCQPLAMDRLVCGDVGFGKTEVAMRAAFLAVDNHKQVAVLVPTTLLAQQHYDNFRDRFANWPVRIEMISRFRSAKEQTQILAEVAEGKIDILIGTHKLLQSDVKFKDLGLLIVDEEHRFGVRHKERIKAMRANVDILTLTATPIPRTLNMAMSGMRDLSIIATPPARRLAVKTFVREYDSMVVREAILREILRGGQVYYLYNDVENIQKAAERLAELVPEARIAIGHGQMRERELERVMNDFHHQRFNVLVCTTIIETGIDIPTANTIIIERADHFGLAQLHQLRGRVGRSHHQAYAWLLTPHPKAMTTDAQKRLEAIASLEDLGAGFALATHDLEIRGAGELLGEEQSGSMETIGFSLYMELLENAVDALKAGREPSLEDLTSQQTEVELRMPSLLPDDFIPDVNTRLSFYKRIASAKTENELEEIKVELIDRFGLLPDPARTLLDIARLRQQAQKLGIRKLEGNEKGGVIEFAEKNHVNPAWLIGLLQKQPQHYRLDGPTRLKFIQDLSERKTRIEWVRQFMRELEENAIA

Row | Structure (SMILES) | mode of inhibition of Mfd ATPase activity (Mfd from E. coli; 0-100 μM (Ia), ATP 0 to 0.279 mM, Michaelis-Menten fit, FIG. 2) | relative inhibition of E. coli Mfd ATPase activity with respect to the vehicle (DMSO) (Mfd from E. coli) | bacterial load in organs (B. cereus (Bc 407) [1]) | survival of infected larvae (protective effect) [2] | bacteria survival / resistance to NO in vitro (A. baumannii (CIP7034)) | bacteria survival / resistance to NO in vitro [3] | toxicity towards the insects (Bombyx mori larvae) | bacteria survival / resistance to NO in vitro (B. cereus (Bc 407) [4]) | survival of infected larvae (protective effect) (Bacillus cereus (Bc 407))
1 | CN(C)S(=O)(=O)c1ccc(S(=O)(=O)N2CCC(n3c(=O)[nH]c4ccccc43)CC2)cc1 [compound (Ia), N,N-dimethyl-4-{[4-(2-oxo-2,3-dihydro-1H-1,3-benzodiazol-1-yl)piperidin-1-yl]sulfonyl}benzene-1-sulfonamide] | competitive inhibitor of Mfd ATPase activity | much higher capacity of inhibition of the Mfd ATPase activity than the comparative compounds; also recorded: more efficient than compound (Ib) | decreases the bacterial load in all these organs | significant protective effect | reduces bacteria resistance to NO in vitro | reduces bacteria resistance to NO in vitro | no toxicity towards the insects | reduces bacteria resistance to NO in vitro | significant protective effect
2 | O=c1[nH]c2ccccc2n1C1CCN(c2ccc(S(=O)(=O)N3CCCCC3)cn2)CC1 [compound (Ib)] | – | much higher capacity of inhibition of the Mfd ATPase activity than the comparative compounds | – | – | – | – | – | – | –
